Assay results taken from PMC6934184, “Selective DNA-PKcs inhibition extends the therapeutic index of localized radiotherapy and chemotherapy” (The Journal of Clinical Investigation, 2019).

Molecular target: T1, CSNK2A1 (CK2 alpha 1) (Homo sapiens, UniProt P68400)
T1 construct: purchased Thermo Fisher Scientific (Life Technologies) SelectScreen
Assay: SelectScreen Z'LYTE
Type: biochemical
Procedure, shortened: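 Compound tested in SelectScreen activity assays, Z'LYTE for CSF1R, CDK1/cyclin B and MAP2K6 and Adapta for CAMK1. ATP for CAMK1 was listed as 10, and Km app was used for CSF1R. Results are expressed in percent.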

T1 sequence (P68400 whole entry): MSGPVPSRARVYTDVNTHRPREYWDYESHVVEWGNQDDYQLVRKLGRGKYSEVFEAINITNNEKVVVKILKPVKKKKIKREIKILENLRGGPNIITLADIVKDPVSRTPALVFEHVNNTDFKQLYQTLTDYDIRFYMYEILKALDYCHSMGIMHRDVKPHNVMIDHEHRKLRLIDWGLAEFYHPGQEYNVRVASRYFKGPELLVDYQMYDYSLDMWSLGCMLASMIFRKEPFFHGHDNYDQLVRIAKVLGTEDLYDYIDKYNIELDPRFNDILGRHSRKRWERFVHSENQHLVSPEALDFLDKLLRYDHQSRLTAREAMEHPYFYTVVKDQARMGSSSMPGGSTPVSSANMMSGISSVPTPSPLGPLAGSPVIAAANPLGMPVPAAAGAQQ

In the case of `CN(C(=O)CN1CCOCC1)c1ccc2sc3c(-c4cccc5c(=O)cc(N6CC7CCC(C6)O7)oc45)cccc3c2c1` [NU5455], the inhibition at 1 µM is reported as 7.1%.
